Tests used:
[1] = test system: MRC-5, lung fibroblast cells; experiment: CCK-8 cytotoxicity assay, MRC5; type: cell-based, human; details: Homo sapiens; MRC5 non-cancerous cells, 48h, CCK-8
Excerpt: (§1) The cytotoxic effects of the newly synthesized diphenyl(tetrahydro-5H-indeno[2,1-c]quinolin-2-yl)phosphine oxides 8, diphenyl(7H-indeno[2,1-c]quinolin-2-yl)phosphine oxides 9, and diphenyl(7-oxo-7H-indeno[2,1-c]quinolin-2-yl)phosphine oxides 10 derivatives were studied against several human cell lines: A549 (carcinomic human alveolar basal epithelial cell), SKOV3 (human ovarian carcinoma), and HEK293 (human embryonic kidney). Furthermore, in order to analyze the selective cytotoxicity facing exclusively cancerous cell lines, toxicity against a non-cancerous cell line (MRC-5, lung fibroblast cells) was also evaluated (Table 3). The cell counting kit (CCK-8) assay was employed to assess the growth inhibition and cell proliferation inhibitory activities of the compounds, which are described in Table 3 as IC50 values.
(§2) Cells were cultured according to the supplier’s instructions. Cells were seeded in 96-well plates at a density of 1.5–3 × 10^3 cells per well and incubated overnight in 0.1 mL of media supplied with 10% Fetal Bovine Serum (Lonza) in a 5% CO2 incubator at 37 °C. On day 2, drugs were added and the samples were incubated for 48h. After treatment, 10 μL of the cell counting kit-8 was added into each well for an additional 2h incubation at 37 °C. The absorbance of each well was determined by an Automatic Elisa Reader System at 450 nm wavelength (deducting 620 nm). CPT was used as the positive control.

[2] = target: T1, human TOP1 (Homo sapiens, UniProt P11387); experiment: TOP1 supercoiled plasmid DNA relaxation assay; type: biochemical; details: for TOP1 Inhibition 30 min: 30 min reaction, compounds at 100 μM, semiquantitative
T1 construct: made in house; host or cells: Saccharomyces cerevisiae TOP1 null strain RS190, plasmid pHT143 (GAL promoter)
T1 sequence (P11387 1-765): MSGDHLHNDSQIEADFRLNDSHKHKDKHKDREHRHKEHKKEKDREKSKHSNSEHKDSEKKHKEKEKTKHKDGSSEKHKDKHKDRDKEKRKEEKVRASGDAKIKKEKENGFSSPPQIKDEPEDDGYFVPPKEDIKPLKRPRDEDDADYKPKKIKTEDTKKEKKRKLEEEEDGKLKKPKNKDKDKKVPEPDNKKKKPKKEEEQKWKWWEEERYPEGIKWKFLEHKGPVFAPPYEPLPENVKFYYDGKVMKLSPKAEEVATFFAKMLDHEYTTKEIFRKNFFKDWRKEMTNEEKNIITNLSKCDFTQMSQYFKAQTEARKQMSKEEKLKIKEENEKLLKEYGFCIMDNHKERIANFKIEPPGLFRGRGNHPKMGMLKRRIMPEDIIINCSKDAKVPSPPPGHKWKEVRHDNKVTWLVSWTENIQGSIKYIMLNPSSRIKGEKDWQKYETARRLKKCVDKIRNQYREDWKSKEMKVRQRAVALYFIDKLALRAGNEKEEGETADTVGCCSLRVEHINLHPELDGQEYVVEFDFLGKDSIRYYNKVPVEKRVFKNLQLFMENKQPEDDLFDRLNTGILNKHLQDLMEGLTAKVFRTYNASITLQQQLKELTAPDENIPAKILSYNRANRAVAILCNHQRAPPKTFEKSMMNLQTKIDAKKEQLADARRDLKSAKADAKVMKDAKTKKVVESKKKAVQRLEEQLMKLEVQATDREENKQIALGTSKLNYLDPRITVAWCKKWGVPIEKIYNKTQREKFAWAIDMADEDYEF

[3] = target: T1, human TOP1; experiment: TOP1 supercoiled plasmid DNA relaxation assay; type: biochemical; details: for TOP1 Inhibition 1 min: 1 min reaction; for TOP1 Inhibition 1 min / TOP1 Inhibition 3 min / TOP1 Inhibition 5 min: compounds at 100 μM, semiquantitative; for TOP1 Inhibition 3 min: 3 min reaction; for TOP1 Inhibition 5 min: 5 min reaction; for Persistence of TOP1 inhibition over the time course: in words
Excerpt: The effect of the previously prepared compounds as TOP1 inhibitors was studied. A conventional supercoiled plasmid relaxation assay was used to determine if the newly fused tetrahydroindenoquinolines 8, more aromatic indenoquinolines 9, and carbonyl derivatives 10 with phosphine oxide substituents inhibit human TOP1 activity by converting supercoiled plasmid DNA to its relaxed form. In these experiments, compound samples were mixed with the enzyme followed by the addition of a supercoiled plasmid DNA substrate, and incubation continued for increasing time intervals (1 min, 3 min, and 5 min). The reaction was terminated by the addition of SDS. DNA relaxation products were then resolved by 1% agarose electrophoresis gel and visualized by gel red staining.
The yeast Saccaromyces cerevisiae TOP1 null strain RS190, which was used for the expression of recombinant human TOP1, was a kind gift from R. Sternglanz (State University of New York, Stony Brook, NY, USA). Plasmid pHT143, for the expression of recombinant TOP1 under the control of an inducible GAL promoter, was described. The plasmids pHT143 were transformed into the yeast S. cerevisiae strain RS190. The proteins were expressed and purified by affinity chromatography essentially as described. The protein concentrations were estimated from Coomassie blue-stained SDS/polyacrylamide gels by comparison to serial dilutions of bovine serum albumin (BSA).
TOP1 activity was assayed using a DNA relaxation assay by incubating 110 ng/mL of TOP1 with 0.5 µg of negatively supercoiled pUC18 in […] of reaction buffer (20 mM Tris HCl, 0.1 mM Na2EDTA, 10 mM MgCl2, […] acetylated BSA, and 150 mM KCl, pH 7.5). The effect of the synthesized phosphorylated derivatives 8, 9, and 10 on the TOP1 activity was measured by adding different concentrations of the compounds, at different time points, as indicated in the text. The reactions were performed at 37 °C stopped by the addition of 0.5% SDS after the indicated time intervals. The samples were protease-digested and electrophoresed in a horizontal 1% agarose gel in 1xTBE (50 mM Tris, 45 mM boric acid, 1 mM EDTA) at 25V during 18h. The gel was stained with gel red (BIOTIUM, 5 mg/mL), destained with water, and photographed under UV illumination. Since all drugs were dissolved in dimethyl sulfoxide (DMSO), a […] control sample containing the same DMSO concentration as the samples incubated with the drugs was included in all experiments.

[4] = test system: SKOV3 (human ovarian carcinoma); experiment: CCK-8 cytotoxicity assay, SKOV3; type: cell-based; details: SK-OV-3, SKOV3 cells, 48h
Excerpt: as §1, §2

[5] = test system: HEK293 (human embryonic kidney); experiment: CCK-8 cytotoxicity assay, HEK293; type: cell-based; details: HEK293 cells, 48h
Excerpt: as §1, §2

[6] = test system: A549 (carcinomic human alveolar basal epithelial cell); experiment: CCK-8 cytotoxicity assay, A549; type: cell-based; details: Homo sapiens, A549, 48 h, A549 cells, 48h, CCK-8
Excerpt: as §1, §2

Structure (SMILES)	IC50 [1]	TOP1 Inhibition 30 min [2]	TOP1 Inhibition 1 min [3]	TOP1 Inhibition 3 min [3]	TOP1 Inhibition 5 min [3]	IC50 [4]	IC50 [5]	IC50 [6]	Persistence of TOP1 inhibition over the time course ([3]; 100 μM)	TOP1 relaxation activity after preincubation of compound with DNA ([2]; 100 μM, compound incubated with DNA for 15 min at 37 °C before TOP1 was added)	TOP1 relaxation activity after preincubation of compound with TOP1 ([3]; 100 μM, compound incubated with TOP1 for 15 min at 37 °C, then DNA added)
O=C1c2ccccc2-c2c1c(-c1ccc(C(F)(F)F)cc1)nc1ccc(P(=O)(c3ccccc3)c3ccccc3)cc21 [Compound 10b, Diphenyl(7-oxo-(6-(4-trifluoromethyl)phenyl)-7H-indeno[2,1-c]quinolin-2-yl)phosphine oxide]	> 50 µM	++	++	++	++	> 50 µM	> 50 µM	> 50 µM	–	–	–
O=C1c2ccccc2-c2c1c(-c1cccc3ccccc13)nc1ccc(P(=O)(c3ccccc3)c3ccccc3)cc21 [Compound 10g, (6-(Naphth-1-yl)-7-oxo-7H-indeno[2,1-c]quinolin-2-yl)diphenylphosphine oxide]	> 50 µM	+ (weak inhibition)	+ (weak inhibition)	+ (weak inhibition)	+ (weak inhibition)	> 50 µM	> 50 µM	> 50 µM	–	–	–
COc1cccc(-c2nc3ccc(P(=O)(c4ccccc4)c4ccccc4)cc3c3c2Cc2ccccc2-3)c1 [Compound 9i, Diphenyl(6-(3-methoxyphenyl)-7H-indeno[2,1-c]quinolin-2-yl)phosphine oxide]	> 50 µM	++	++	++	++	> 50 µM	> 50 µM	> 50 µM	–	–	–
O=P(c1ccccc1)(c1ccccc1)c1ccc2c(c1)C1c3ccccc3CC1C(c1cccc3ccccc13)N2 (centres unmarked) [Compound 8g, Diphenyl(6-(naphthalen-1-yl)-6,6a,7,11b-tetrahydro-5H-indeno[2,1-c]quinolin-2-yl)phosphine oxide]	> 50 µM	+ (weak inhibition)	+ (weak inhibition)	+ (weak inhibition)	+ (weak inhibition)	> 50 µM	> 50 µM	> 50 µM	–	–	–
O=C1c2ccccc2-c2c1c(-c1ccccc1)nc1ccc(P(=O)(c3ccccc3)c3ccccc3)cc21 [Compound 10a, Diphenyl(7-oxo-6-phenyl-7H-indeno[2,1-c]quinolin-2-yl)phosphine oxide]	> 50 µM	++	+ (weak inhibition)	++	++	> 50 µM	> 50 µM	> 50 µM	–	–	–
O=P(c1ccccc1)(c1ccccc1)c1ccc2nc(-c3cccc4ccccc34)c3c(c2c1)-c1ccccc1C3 [Compound 9g, Diphenyl(6-(naphthalen-1-yl)-7H-indeno[2,1-c]quinolin-2-yl)phosphine oxide]	> 50 µM	++	++	++	++	> 50 µM	> 50 µM	> 50 µM	–	–	–
O=[N+]([O-])c1ccc(C2Nc3ccc(P(=O)(c4ccccc4)c4ccccc4)cc3C3c4ccccc4CC23)cc1 (centres unmarked) [Compound 8k, Diphenyl(6-(4-nitrophenyl)-6,6a,7,11b-tetrahydro-5H-indeno[2,1-c]quinolin-2-yl)phosphine oxide]	> 50 µM	+ (weak inhibition)	+ (weak inhibition)	+ (weak inhibition)	+ (weak inhibition)	> 50 µM	> 50 µM	> 50 µM	more persistent inhibition	–	–
O=P(c1ccccc1)(c1ccccc1)c1ccc2c(c1)C1c3ccccc3CC1C(c1ccc(F)cc1)N2 (centres unmarked) [Compound 8c, Diphenyl(6-(4-fluorophenyl)-6,6a,7,11b-tetrahydro-5H-indeno[2,1-c]quinolin-2-yl)phosphine oxide]	10.7 ± 0.43 µM	++	++	++	++	> 50 µM	> 50 µM	19.9 ± 3.35 µM	–	–	–
O=P(c1ccccc1)(c1ccccc1)c1ccc2nc(-c3ccc(C(F)(F)F)cc3)c3c(c2c1)-c1ccccc1C3 [Compound 9b, Diphenyl(6-(4-(trifluoromethyl)phenyl)-7H-indeno[2,1-c]quinolin-2-yl)phosphine oxide]	> 50 µM	+++ (strong inhibition)	+++ (strong inhibition)	+++ (strong inhibition)	+++ (strong inhibition)	> 50 µM	> 50 µM	> 50 µM	–	partially relaxing the DNA	the enzyme was inactive, not being able to relax the DNA
O=P(c1ccccc1)(c1ccccc1)c1ccc2c(c1)C1c3ccccc3CC1C(c1ccccc1)N2 (centres unmarked) [Compound 8a, Diphenyl(6-phenyl-6,6a,7,11b-tetrahydro-5H-indeno[2,1-c]quinolin-2-yl)phosphine oxide]	> 50 µM	++	++	++	++	6.35 ± 1.73 µM	–	40.2 ± 7.13 µM	more persistent inhibition	–	–
